Columns and labels:
[1] = Stability of gabapentin in presence of different stabilizers and solvents; assay type: physicochemical; settings: GBP 9 mg/mL in acetate buffer
Protocol: GBP containing formulations were prepared by dissolving GBP to a concentration of 9 mg/mL in acetate buffer. A first set of samples were tested for assay and impurities after the initial preparation of formulation. Another set of samples were steam sterilized at 121° C. for 15 min and were tested for assay and impurity levels.

[2] = Pharmacokinetics in rats after 15 min IV infusion; settings: for AUC / Cmax: male, rat, plasma, iv
Protocol: Formulation compositions were prepared by dissolving GBP and/or APAP as indicated in Table 5 and the pH was adjusted to 5.5 using HCl or NaOH.
Blood samples were collected over a 24 h period at which time the rats were exsanguinated and blood collected for Clinical Pathology (Chemistry, Hematology and Coagulation) evaluation. Finally, all animals were necropsied (all exterior and interior cavities and organs were examined) and the site of infusion in the jugular vein, lung, liver and kidney underwent histopathologic evaluation.

[3] = tested on: mouse whole blood (male), red blood cells; assay: In vitro hemolysis test, mouse blood; settings: 15 min at 37° C.; for % Hemolysis: Mouse Blood; for interpretation of hemolysis to Red Blood Cells: mouse whole unclotted blood, concentrations tested
Protocol: (§1) APAP and GBP alone or in combination were evaluated in the in vitro hemolysis test using four biologic matrices (mouse, rat, dog and human whole unclotted blood) to determine the hemolytic potential for each on red blood cells.

[4] = tested on: rat whole blood (male), red blood cells; assay: In vitro hemolysis test, rat blood; settings: 15 min at 37° C.; for % Hemolysis: Rat Blood; for interpretation of hemolysis to Red Blood Cells: rat whole unclotted blood, concentrations tested
Protocol: as §1

[5] = tested on: beagle dog whole blood (male), red blood cells; assay: In vitro hemolysis test, dog blood; settings: 15 min at 37° C.; for % Hemolysis: Dog Blood; for interpretation of hemolysis to Red Blood Cells: dog whole unclotted blood, concentrations tested
Protocol: as §1

[6] = tested on: human (pooled) whole blood, red blood cells; assay: In vitro hemolysis test, human blood; settings: 15 min at 37° C.; for % Hemolysis: Human Blood; for interpretation of hemolysis to Red Blood Cells: human whole unclotted blood, concentrations tested
Protocol: as §1

motor control = assay: Mouse RotoRod/Acelerorod test; settings: mice, 15 minute IV infusion, 10 mg Acetaminophen/mL, 8 mg Gabapentin/mL; 1, 2, 4, 6 h
Protocol: Mouse tail flick test was conducted to evaluate test somatic pain and mouse rotorod/acelorod test evaluated behavioral changes, specifically somnolence or dizziness
In each case a positive control was administered as described below.
Male ICR mice were trained on a RotoRod/Acelerod at a continuous accelerating speed from 4 to 30 rpm/min during a time period of 4 minutes for at least 3 times on day 0. Vehicle or test article at a single dose is administered by intravenous infusion over 15 minutes starting 30 minutes before the test period starts and chlorpromazine (30 mg/kg, PO) was administered by oral gavage 60 minutes before the start of the test period. At 1, 2, 4, and 6 hours after the start of the test the mice are placed on the accelerating rotorod (increasing from 4 to 30 rpm/min during a 4 min period) and the time (seconds) the mouse remained on the rotorod was recorded. One-way ANOVA followed by Dunnett's test is applied for comparison between vehicle control and test article groups. P<0.05 is considered significant.
A baseline was measured before administration of the test agents and at 1, 2, 4 and 6 h post the start of the study. The effect of the compounds was evaluated in the standard RotoRod/Acelerorod test.

rats = assay: Toxicologic profile in rats (clinical pathology, necropsy, histopathology)
[7] = Koshy et al; cited from earlier work

Question: For “1-(aminomethyl) cyclohexane acetic acid [Gabapentin]”, which “order of stability of GBP in solvents and stabilizers” value [1] is on record?
Answer: PVP>Glycine>Lysine>Propylene Glycol>Sorbitol>PEG400>Glycerol>Mannitol>Sodium Oleate>β-cyclodextrin>Deoxychloic Acid>CMC>L-Glutamic Acid

Question: What about the “stability of GBP with stabilizer” value ([1]; PVP at 10 mg/mL) of the same compound?
Answer: more stable

Question: What about the “Gabapentin PK AUC” value ([2]; 15 min IV infusion) of the same compound?
Answer: 37,663 ng · h/mL

Question: And the “Gabapentin PK Cmax” value ([2]; 15 min IV infusion)?
Answer: 20,138 ng/mL

Question: What about the “PK profile of GBP” value ([2]; in the presence of APAP) of the same compound?
Answer: no change

Question: And the “% Hemolysis” value ([3]; GBP 2 mg/mL)?
Answer: 0%

Question: What about the “% Hemolysis” value ([3]; GBP 4 mg/mL) of the same compound?
Answer: 0%

Question: What about the “% Hemolysis” value ([3]; GBP 8 mg/mL) of the same compound?
Answer: 0%

Question: And the “interpretation of hemolysis to Red Blood Cells” value (“interpretation of hemolysis” for short) [3]?
Answer: not considered to be hemolytic

Question: What about the “% Hemolysis” value ([4]; GBP 2 mg/mL) of the same compound?
Answer: 0%

Question: And the “% Hemolysis” value ([4]; GBP 4 mg/mL)?
Answer: 0%

Question: What about the “% Hemolysis” value ([4]; GBP 8 mg/mL) of the same compound?
Answer: 0%

Question: And the “interpretation of hemolysis” value [4]?
Answer: not considered to be hemolytic

Question: And the “% Hemolysis” value ([5]; GBP 2 mg/mL)?
Answer: 0%

Question: What about the “% Hemolysis” value ([5]; GBP 4 mg/mL) of the same compound?
Answer: 0%

Question: And the “% Hemolysis” value ([5]; GBP 8 mg/mL)?
Answer: 0%

Question: What about the “interpretation of hemolysis” value [5] of the same compound?
Answer: not considered to be hemolytic

Question: What about the “% Hemolysis” value ([6]; GBP 2 mg/mL) of the same compound?
Answer: 0%

Question: What about the “% Hemolysis” value ([6]; GBP 4 mg/mL) of the same compound?
Answer: 2%

Question: What about the “% Hemolysis” value ([6]; GBP 8 mg/mL) of the same compound?
Answer: 0%

Question: What about the “interpretation of hemolysis” value [6] of the same compound?
Answer: not considered to be hemolytic

Question: What about the “decrease in motor control compared to the vehicle control” value (motor control) of the same compound?
Answer: no statistically significant decrease in motor control

Question: What about the “Clinical Pathology (Clinical Chemistry, Hematology or Coagulation Parameters)” value (rats; 24 h after 15 minute IV infusion) of the same compound?
Answer: did not alter the Clinical Pathology

Question: What about the “histopathology of tissues compared to vehicle control” value (rats; infusion site, lung, liver, kidney) of the same compound?
Answer: no changes in the histopathology

Question: Which results are given for `CC(=O)Nc1ccc(O)cc1` [Acetaminophen]?
Answer: AUC ([2]; Acetaminophen PK AUC, 15 min IV infusion): 7.29 µg·h/mL; Cmax ([2]; Acetaminophen PK Cmax, 15 min IV infusion): 10.1 µg/mL; AUC ([2]; Bioequivalent Range (80-125%) AUC, 15 min IV infusion, 80-125% of single-drug value): 5.83 to 9.11 µg·h/mL; Cmax ([2]; Bioequivalent Range (80-125%) Cmax, 15 min IV infusion, 80-125% of single-drug value): 8.11 to 12.7 µg/mL; % Hemolysis ([3]; APAP 5 mg/mL): 4%; % Hemolysis ([3]; APAP 10 mg/mL): 4%; interpretation of hemolysis to Red Blood Cells [3]: not considered to be hemolytic; % Hemolysis ([4]; APAP 5 mg/mL): 0%; % Hemolysis ([4]; APAP 10 mg/mL): 0%; interpretation of hemolysis to Red Blood Cells [4]: not considered to be hemolytic; % Hemolysis ([5]; APAP 5 mg/mL): 0%; % Hemolysis ([5]; APAP 10 mg/mL): 5%; interpretation of hemolysis to Red Blood Cells [5]: not considered to be hemolytic; % Hemolysis ([6]; APAP 5 mg/mL): 0%; % Hemolysis ([6]; APAP 10 mg/mL): 0%; interpretation of hemolysis to Red Blood Cells [6]: not considered to be hemolytic; decrease in motor control compared to the vehicle control (motor control): no statistically significant decrease in motor control; pH range of minimum hydrolysis of APAP [7]: 5-7

From patent publication US10052296B2, “Formulations for treating pain” (priority 2016, dated 2018)
